Laboratory results: patent US20200061087A1, “Inhibiting the Fungal Cell-Surface Phospate Transporter PHO84” (Children's Medical Center Corporation, priority 2017, published 2020)

How the values were obtained:
[1] = system: C. albicans wild type, pho84−/− null and reintegrant cells; assay: Growth in YPD with oxidative stressors (OD600); type: cell-based, Candida albicans; settings: 25 μM plumbagin, 40 μM menadione, 40 mM H2O2, FIG. 16A
Experimental: FIGS. 16A and 16B depict data showing that resistance to oxidative stressors is decreased, and Hog1 phosphorylation is increased in cells lacking PHO84. In FIG. 16A, overnight cultures were washed with normal saline and diluted to YPD with vehicle, 25 μM plumbagin, 40 μM menadione, and 40 mM H2O2 to OD600 0.1. OD600 was monitored every 15 minutes for strains +/+ (PHO84/PHO84), JKC915; −/− (pho84/pho84), JKC1450 and −/−/+(pho84/pho84::PHO84), JKC1588. FIG. 16B depicts a Western blot of cells incubated in YPD containing 5 mM H2O2 for 5 min, 10 min, 20 min, 30 min and 40 min. The membrane was probed for P-Hog1, total Hog1, and loading controls PSTAIRE and Histone H3. Strains, +/+ (PHO84/PHO84), JKC915; −/− (pho84/pho84), JKC1450 and −/−/+ (pho84/pho84::PHO84), JKC1588. FIGS. 16A and 16B show representatives of at least 3 biological replicates.
For cell dilutions spotted onto agar media as previously described (20), saturated overnight cultures were diluted in 5-fold steps from an OD600 of 0.5. For growth curves in liquid media, saturated overnight cultures in YPD were washed once in 0.9% NaCl and diluted to an OD600 of 0.15 in 150 μl medium in flat bottom 96-well dishes. For growth assays including those during drug exposure, OD600 readings were obtained every 15 min in a plate reader and standard deviations of 3 technical replicates were calculated and graphed in Graphpad Prism. Growth during drug exposure was assayed in SC medium. Vehicle for Pho84 inhibitors PAA (Sigma, 284270) and Fos (Santa Cruz Biotechnology, # SC-253593A) was water and for amphotericin B (Sigma, A9528), DMSO. All panels shown represent at least 3 biological replicates.

[2] = system: human peripheral blood derived neutrophils incubated with C. albicans; type: cell-based; settings: neutrophils pretreated with different concentrations of NAC (up to 10 mM); 90 min, M.O.I. 2; dose-dependent; FIG. 12D
Experimental: To examine whether in fact ROS are responsible for pho84−/− null cells' increased susceptibility to neutrophils' cidal activity, Candida-ingesting neutrophils were treated with the ROS-scavenging compound N-acetyl cysteine (NAC).

[3] = system: C. albicans wild type PHO84/PHO84 and pho84/pho84 null cells; assay: Growth curves in liquid SC medium (OD600) during exposure to Pho84 inhibitors; type: cell-based, Candida albicans; settings: wild type vs pho84−/− null; 1 and 4 mM PAA or 200 and 400 μM foscarnet; SC with 0.22 or 11 mM KH2PO4, 30° C.; FIG. 10A, B
Experimental: FIGS. 10A-10D depict data showing that Foscarnet inhibits Pho84 in competition with Pi. Wild type PHO84/PHO84 (+/+, dark blue) (JKC915) and pho84/pho84 null (−/−, light blue) (JKC1450) cells were exposed to 1 and 4 mM PAA (FIG. 10A) or 200 and 400 μM foscarnet (FIG. 10B), and growth in SC medium with 0.22 mM or 11 mM KH2PO4 at 30° C. was monitored automatically every 15 minutes. FIGS. 10A and 10B are representative of 3 biological replicates; error bars show SD. FIG. 10C depicts a filamentation assay: in order to maximize reproducibility between replicate experiments, cells of wild type strain SC5314 were suspended in 0.9% NaCl to an OD600 of 0.1; then 3 μl of the suspension was spotted at equidistant points, using a template, around a Spider agar plate containing vehicle or 500 μM foscarnet. Spot edges were imaged to show the length and density of filaments extending from the edge of the spot into the agar medium. Scale bar 1 mm. […] OD600 was monitored automatically every 15 minutes. […]
For cell dilutions spotted onto agar media as previously described (20), saturated overnight cultures were diluted in 5-fold steps from an OD600 of 0.5. […] For growth assays including those during drug exposure, OD600 readings were obtained every 15 min in a plate reader and standard deviations of 3 technical replicates were calculated and graphed in Graphpad Prism. […]

[4] = system: TORC1 (Rps6 phosphorylation); assay: Western blot for phosphorylated ribosomal protein S6 (P-S6) as readout of TORC1 activity; type: cell-based, Candida albicans; settings: FIG. 4A
Experimental: (§1) FIGS. 4A-4D depict data showing that small-molecule inhibition of Pho84 represses TORC1 and hyphal morphogenesis, and potentiates amphotericin B and micafungin antifungal activity. FIG. 4A depicts a Western blot of wild type (wt) (SC5314) cells with (1) vehicle, (2) 100 μM foscarnet (Fos), (3) 200 μM Fos, (4) 400 μM Fos, and strains (5, 7, 9, 11) PHO84+/+(JKC915), (6, 8) pho84−/+ (JKC1583) and (10, 12) pho84−/− (JKC1450), grown in standard SC (7.3 mM Pi) for 60 min, probed for P-S6 and tubulin. FIG. 4B depicts Wt (SC5314) spotted at equidistant points around RPMI agar (0.22 mM KH2PO4, pH 7) containing vehicle, 8 mM phosphonoacetic acid (PAA), or 500 μM Fos, grown at 37° C., and spot edges imaged. Compare with FIG. 7A. Bar 1 mm. FIG. 4C depicts Wt (SC5314) exposed to vehicle, 500 μM Fos, 0.2 μg/ml amphotericin B, and amphotericin B plus Fos; OD600 in SC with 0.5 mM KH2PO4 at 30° C. monitored every 15 minutes. FIG. 4D depicts Wt (SC5314) exposed to vehicle, 500 μM Fos, 25 ng/ml micafungin, and micafungin plus Fos; OD600 in SC with 0.5 mM KH2PO4 at 30° C. monitored every 15 minutes.
Cell harvesting, lysis, Western blotting and densitometry were performed as described in Chowdhury T & Köhler JR (2015) Ribosomal protein S6 phosphorylation is controlled by TOR and modulated by PKA in Candida albicans. Molecular Microbiology 98(2):384-402. At least three biological replicates were obtained for each experiment shown.

[5] = system: C. albicans wild type (SC5314); assay: Potentiation of antifungals, growth curves (OD600) in SC with 0.5 mM KH2PO4; type: cell-based, Candida albicans; settings: 500 μM Fos plus 0.2 μg/ml amphotericin B; 8 mM PAA plus 0.25 μg/ml amphotericin B; 30° C.; FIG. 4C, 10D
Experimental: as §1, with “FIG. 4B depicts Wt (SC5314) spotted at equidistant points around RPMI agar (0.22 mM KH2PO4, pH 7) containing vehicle, 8 mM phosphonoacetic acid (PAA), or 500 μM Fos, grown at 37° C., and spot edges imaged. Compare with FIG. 7A. Bar 1 mm.” left out
FIGS. 10A-10D depict data showing that Foscarnet inhibits Pho84 in competition with Pi. Wild type PHO84/PHO84 (+/+, dark blue) (JKC915) and pho84/pho84 null (−/−, light blue) (JKC1450) cells were exposed to 1 and 4 mM PAA (FIG. 10A) or 200 and 400 μM foscarnet (FIG. 10B), and growth in SC medium with 0.22 mM or 11 mM KH2PO4 at 30° C. was monitored automatically every 15 minutes. […] OD600 was monitored automatically every 15 minutes. […]

[6] = system: ROS content of wild type (SC5314) cells; assay: DCFDA detectable ROS measurement; type: cell-based, Candida albicans; settings: wild type cells unexposed to external oxidative stressors; 500 microM foscarnet or 1 mM PAA, 1 hour; FIG. 20C
Experimental: FIGS. 20A-20D depict data showing that TORC1 activity contributes to ROS management and Sod3 expression. FIG. 20A depicts dichlorodihydrofluorescein diacetate (DCFDA) detectable ROS measurement of strains, (1) PHO84/PHO84 containing vector (JKC1594), (2) pho84/pho84 containing vector (JKC1598), (3) PHO84/PHO84 overexpressing GTR1 (JKC1596), (4) pho84/pho84 overexpressing GTR1 (JKC1600). Cells cultured overnight in YPD were diluted into SC medium (Loflo) with vehicle or 8 ng/ml rapamycin for 1 hour, and fluorescence intensity was determined at excitation-485 nm and emission wavelength 528 nm after staining cells with 50 μM DCFDA. p=0.0252 for ratio of pho84−/− with vector and pho84−/− overexpressing GTR1 versus ratio of wild type with vector and wild type overexpressing GTR1; all cells exposed to vehicle. p=0.0014 for ratio of pho84−/− with vector and pho84−/− overexpressing GTR1 versus ratio of wild type with vector and wild type overexpressing GTR1; all cells exposed to rapamycin. p values calculated using Student's t-test. […] In FIG. 20C, wild type (SC5314) cells were exposed to vehicle, 500 microM foscarnet or 1 mM PAA for 1 hour, and fluorescence intensity was determined at excitation-485 nm and emission wavelength 528 nm after staining cells with 50 μM DCFH-DA. p<0.001 for both 500 microM foscarnet versus vehicle and 1 mM PAA versus vehicle. […]

Structure (SMILES) | Growth inhibition of pho84−/− null mutant compared with wild type [1] | C. albicans growth inhibition in dependence on Pho84 [3] | Potentiation of amphotericin B antifungal activity [5] | ROS content (DCFDA detectable) [6] | also measured
CC1=CC(=O)c2ccccc2C1=O [menadione] | inhibited growth of the mutant more strongly than that of the wild type |  |  |  | 
CC(=O)N[C@@H](CS)C(=O)O [NAC, N-acetyl cysteine] |  |  |  |  | Hypersensitivity of pho84−/− null cells to neutrophil killing [2]: rescued hypersensitivity of pho84−/− null cells to neutrophil killing
OO [H2O2, hydrogen peroxide] | inhibited growth of the mutant more strongly than that of the wild type |  |  |  | 
CC1=CC(=O)c2c(O)cccc2C1=O [plumbagin] | inhibited growth of the mutant more strongly than that of the wild type |  |  |  | 
O=C(O)P(=O)(O)O [Fos, phosphonoformic acid] |  | inhibit C. albicans growth in dependence on the presence of their target Pho84 | potentiate activity of the antifungal amphotericin B | increased the ROS content of wild type cells | Rps6 phosphorylation (P-S6) ([4]; heterozygous pho84−/+ cells (JKC1583)): P-S6 was hypersensitive to Fos; Rps6 phosphorylation (P-S6) ([4]; pho84−/− cells lacking the target (JKC1450)): did not further decrease the P-S6 signal; Rps6 phosphorylation (P-S6) ([4]; wild type (SC5314) cells, 100, 200, 400 μM Fos, SC (7.3 mM Pi), 60 min): inhibited Rps6 phosphorylation (PS6) in a dose-dependent manner
O=C(O)CP(=O)(O)O [PAA, phosphonoacetic acid] |  | inhibit C. albicans growth in dependence on the presence of their target Pho84 | potentiate activity of the antifungal amphotericin B | increased the ROS content of wild type cells | 
